This note sets out measurements from US20060008574A1, “Galactosyl isomalt, method for production and use thereof” (priority 2002, published 2006).

Assay in all cases: Fermentation by human bifidobacteria
Assay type in all cases: cell-based
Set-up in all cases: key: −: no decomposition; +: decomposition and metabolization of galactose from β-1,3-galactosyl isomalt; ++: decomposition and metabolization of galactose and glucose from β-1,3-galactosyl isomalt; +++: complete decomposition of β-1,3-galcatosyl isomalt
What all share (conditions): medium 2, 48 h

For assay [1], the system named is B. adolescentis DSM 20083. Here is the method:
(§1) To investigate the prebiotic and bifidogenic properties of galactosyl isomalt, the growth of various human bifidobacteria was investigated on this substrate in vitro. An anaerobic medium of the following composition was used:
(§2) 22 strains of human bifidobacteria were first precultured in “Hungate” test tubes on the above medium 1, in which the source of carbohydrate had first been replaced by glucose (10 g/L). The strains were then inoculated onto medium 2, incubated for 48 h, and then the optical density (E578), the pH, the formation of acetate and lactate and the decrease of the β-1,3-galactosyl isomalt concentration were determined.
(§3) Various decomposition paths are distinguished with regard to the metabolization of galactosyl isomalt. Some strains degrade galactose from the substrate with a β-galactosidase and metabolize this monosaccharide (+).
(§4) Other strains additionally degrade glucose from the resulting isomalt, in addition to galactose, metabolize both monosaccharides, while this is not true for the resulting mannitol or sorbitol (++). The third group is capable of utilizing galactosyl isomalt as a substrate and also metabolizing mannitol and sorbitol (+++).

The test system of assay [2] is B. adolescentis DSM 20086. The method, then:
as §1, §2, §3, §4

In assay [3] the test system is B. adolescentis DSM 20087. Here is the method: as §1, §2, §3, §4
Assay [4] has as its system B. angulatum DSM 20098. The method, then:
as §1, §2, §3, §4

For assay [5], the system named is B. angulatum DSM 20225. Here is the method:
as §1, §2, §3, §4

Assay [6] concerns B. bifidum DSM 20215. Here is the method:
as §1, §2, §3, §4

For assay [7], the system named is B. bifidum DSM 20239. The method, then:
as §1, §2, §3, §4

Assay [8] has as its system B. bifidum DSM 20456. The method, then:
as §1, §2, §3, §4

Assay [9] has as its system B. breve DSM 20091. The method, then: as §1, §2, §3, §4
For assay [10], the system named is B. breve DSM 20213. The method, then:
as §1, §2, §3, §4

In assay [11] the test system is B. catenulatum DSM 20103. The method, then: as §1, §2, §3, §4
For assay [12], the system named is B. catenulatum DSM 20224. The method, then: as §1, §2, §3, §4
The test system of assay [13] is B. infantis DSM 20088. The method, then: as §1, §2, §3, §4
The subject of assay [14] is B. infantis DSM 20218. Here is the method: as §1, §2, §3, §4
In assay [15] the test system is B. infantis DSM 20223. The method, then: as §1, §2, §3, §4
In assay [16] the test system is B. longum DSM 20219. The method, then: as §1, §2, §3, §4
The test system of assay [17] is B. pseudocatenulatum DSM 20438. The method, then:
as §1, §2, §3, §4

As for `OCC1O[C@H](OC[C@@H](O)[C@@H](O)[C@H](O)C(O)CO)C(O)C(O[C@@H]2OC(CO)[C@H](O)C(O)C2O)[C@@H]1O` (mixture of isomers) [β-1,3-Galactosyl isomalt, β-D-galactosyl-(1→3)-α-D-glucosyl-(1→6)-D-sorbitol(β-1,3-galactosyl-1,6-GPS) and β-D-galactosyl-(1→3)-α-D-glucosyl-(1→1)-D-mannitol(β-1,3-galactosyl-1,1-GPM)], the “Growth on β-1,3-galactosyl isomalt” value is listed as “+++” in assay [1]; “+++” in [2]; “+++” in assay [3]; “++” in assay [4]; “++” in assay [5]; “+” in [6]. In addition, the “Growth on β-1,3-galactosyl isomalt” value was “+” in assay [7]; “−” in [8]; “+” in [9]; “+” in assay [10]; “++” in assay [11]; “++” in assay [12]. The “Growth on β-1,3-galactosyl isomalt” value was “++” in assay [13]; “−” in assay [14]; “+++” in assay [15]; “+++” in [16]; “++” in [17].
